# Where two headings read alike, the source gives them in different places.
# Columns and labels:
# TNF-α [1] = assay: TNF-α inhibitory properties (ELISA), PaCa2 cell lysate; assay type: cell-based, human; settings: at 10 μM; for TNF-α pg/mL (± SEM) PaCa2: control 111.8 ± 2.0
# TNF-α [2] = assay: TNF-α inhibitory properties (ELISA), HCT116 cell lysate; assay type: cell-based, human; settings: at 10 μM; for TNF-α pg/mL (± SEM) HCT116: control 95.74 ± 0.5
# TNF-α [3] = assay: TNF-α inhibitory properties (ELISA), MCF7 cell lysate; assay type: cell-based, human; settings: at 10 μM; for TNF-α pg/mL (± SEM) MCF7: control 83.26 ± 1.1
# [4] = tested on: PaCa2 (pancreatic) cancer cell line; assay: 2D-monolayer antiproliferation (MTT) against PaCa2; assay type: cell-based, human; settings: for IC50: Homo sapiens, PaCa-2, MTT, 72 h incubation, PaCa2 pancreatic, read-out: IC50, μM ± SEM PaCa2; for SI (selectivity index) PaCa2: IC50 of RPE1 normal cell/IC50 of PaCa2; for 1/(observed property): 1/observed IC50 (μM), PaCa2
# COX-1 = target: T1, COX-1 (Ovis aries, UniProt P05979); assay: biochemical; settings: 3 replicates, read-out: % Inhibition of COX-1 ± SEM
# T1 construct: purchased BioVision incorporated USA K548–100
# T1 sequence (P05979 25-600): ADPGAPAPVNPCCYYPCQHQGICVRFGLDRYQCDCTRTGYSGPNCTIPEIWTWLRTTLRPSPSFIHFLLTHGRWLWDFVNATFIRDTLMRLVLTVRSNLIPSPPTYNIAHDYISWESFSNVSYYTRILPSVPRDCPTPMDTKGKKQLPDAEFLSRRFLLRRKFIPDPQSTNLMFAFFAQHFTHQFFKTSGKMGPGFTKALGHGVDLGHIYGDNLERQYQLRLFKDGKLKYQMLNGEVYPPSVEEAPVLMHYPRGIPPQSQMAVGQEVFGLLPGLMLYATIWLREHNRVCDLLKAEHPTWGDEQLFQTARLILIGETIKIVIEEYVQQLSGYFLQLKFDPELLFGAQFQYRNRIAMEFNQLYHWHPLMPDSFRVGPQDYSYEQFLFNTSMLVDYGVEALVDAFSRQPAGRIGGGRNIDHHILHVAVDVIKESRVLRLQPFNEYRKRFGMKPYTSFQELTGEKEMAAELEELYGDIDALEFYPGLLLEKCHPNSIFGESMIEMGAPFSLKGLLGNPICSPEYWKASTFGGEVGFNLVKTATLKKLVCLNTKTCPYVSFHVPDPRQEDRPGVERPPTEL
# [5] = tested on: RPE1 (normal human immortalized retinal pigment epithelial cell line); assay: cells; assay type: cell-based; settings: for IC50: Homo sapiens, RPE-1, MTT, normal RPE1 cell, read-out: IC50, μM ± SEM RPE1
# VEGFR-2 [6] = target: T2, VEGFR-2 (Homo sapiens, UniProt P35968); assay: cell-based; assay type: cell-based; settings: for inhibition at 10 µM: HCT-116, HCT116; for VEGFR-2 pg/mL ± SEM HCT116: at 10 μM, control 317.80 ± 3.5
# T2 construct: endogenous in cells; host or cells: HCT116, PaCa2, MCF7 (human cancer cell lines, ATCC origin)
# [7] = tested on: A549 (lung) cancer cell line; assay: 2D-monolayer antiproliferation (MTT) against A549; assay type: cell-based, human; settings: for IC50: Homo sapiens, MTT, 72 h incubation, A549 lung, read-out: IC50, μM ± SEM A549; for SI (selectivity index) A549: IC50 of RPE1 normal cell/IC50 of A549
# [8] = tested on: MCF7 (breast) cancer cell line; assay: 2D-monolayer antiproliferation (MTT) against MCF7; assay type: cell-based, human; settings: for IC50: Homo sapiens, MTT, 72 h incubation, MCF7 breast, read-out: IC50, μM ± SEM MCF7; for SI (selectivity index) MCF7: IC50 of RPE1 normal cell/IC50 of MCF7
# COX-2 = target: T3, COX-2 (Homo sapiens, UniProt P35354); assay: biochemical; settings: for inhibition at 10 µM: 3 replicates, read-out: % Inhibition of COX-2 ± SEM; for SI (selectivity index, COX-2/COX-1): at 10 μM
# T3 construct: purchased BioVision incorporated USA K548–100
# T3 sequence (P35354 18-604): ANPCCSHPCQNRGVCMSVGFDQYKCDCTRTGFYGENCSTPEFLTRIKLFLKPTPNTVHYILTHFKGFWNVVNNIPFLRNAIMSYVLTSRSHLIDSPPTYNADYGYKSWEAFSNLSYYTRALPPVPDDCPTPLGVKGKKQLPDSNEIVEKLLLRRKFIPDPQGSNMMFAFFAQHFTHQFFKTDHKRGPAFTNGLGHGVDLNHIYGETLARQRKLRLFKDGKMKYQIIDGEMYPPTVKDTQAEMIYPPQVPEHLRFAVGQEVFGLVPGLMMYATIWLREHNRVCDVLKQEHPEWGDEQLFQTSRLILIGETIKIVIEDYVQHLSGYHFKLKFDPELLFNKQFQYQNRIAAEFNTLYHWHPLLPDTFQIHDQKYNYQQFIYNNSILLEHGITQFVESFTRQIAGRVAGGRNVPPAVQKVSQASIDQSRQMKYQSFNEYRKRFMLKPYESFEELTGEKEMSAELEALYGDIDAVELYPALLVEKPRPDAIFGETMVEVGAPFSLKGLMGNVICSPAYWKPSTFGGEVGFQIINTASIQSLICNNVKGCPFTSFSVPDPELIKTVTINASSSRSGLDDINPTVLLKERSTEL
# VEGFR-2 [9] = target: T2, VEGFR-2; assay: cell-based; assay type: cell-based; settings: for inhibition at 10 µM: MCF7; for VEGFR-2 pg/mL ± SEM MCF7: at 10 μM, control 258.70 ± 2.3
# [10] = tested on: HCT116 (colon) cancer cell line; assay: 2D-monolayer antiproliferation (MTT) against HCT116; assay type: cell-based, human; settings: for IC50: Homo sapiens, HCT-116; for SI (selectivity index) HCT116: IC50 of RPE1 normal cell/IC50 of HCT116
# VEGFR-2 [11] = target: T2, VEGFR-2; assay: cell-based; assay type: cell-based; settings: for inhibition at 10 µM: PaCa-2, PaCa2; for VEGFR-2 pg/mL ± SEM PaCa2: at 10 μM, control 326.80 ± 1.9
# [12] = MTT, 72 h incubation, HCT116 colon, read-out: IC50, μM ± SEM HCT116
# [13] = log of observed IC50 (μM), HCT116, read-out: Log(observed property) (converted)
# T2 sequence (P35968 20-1356): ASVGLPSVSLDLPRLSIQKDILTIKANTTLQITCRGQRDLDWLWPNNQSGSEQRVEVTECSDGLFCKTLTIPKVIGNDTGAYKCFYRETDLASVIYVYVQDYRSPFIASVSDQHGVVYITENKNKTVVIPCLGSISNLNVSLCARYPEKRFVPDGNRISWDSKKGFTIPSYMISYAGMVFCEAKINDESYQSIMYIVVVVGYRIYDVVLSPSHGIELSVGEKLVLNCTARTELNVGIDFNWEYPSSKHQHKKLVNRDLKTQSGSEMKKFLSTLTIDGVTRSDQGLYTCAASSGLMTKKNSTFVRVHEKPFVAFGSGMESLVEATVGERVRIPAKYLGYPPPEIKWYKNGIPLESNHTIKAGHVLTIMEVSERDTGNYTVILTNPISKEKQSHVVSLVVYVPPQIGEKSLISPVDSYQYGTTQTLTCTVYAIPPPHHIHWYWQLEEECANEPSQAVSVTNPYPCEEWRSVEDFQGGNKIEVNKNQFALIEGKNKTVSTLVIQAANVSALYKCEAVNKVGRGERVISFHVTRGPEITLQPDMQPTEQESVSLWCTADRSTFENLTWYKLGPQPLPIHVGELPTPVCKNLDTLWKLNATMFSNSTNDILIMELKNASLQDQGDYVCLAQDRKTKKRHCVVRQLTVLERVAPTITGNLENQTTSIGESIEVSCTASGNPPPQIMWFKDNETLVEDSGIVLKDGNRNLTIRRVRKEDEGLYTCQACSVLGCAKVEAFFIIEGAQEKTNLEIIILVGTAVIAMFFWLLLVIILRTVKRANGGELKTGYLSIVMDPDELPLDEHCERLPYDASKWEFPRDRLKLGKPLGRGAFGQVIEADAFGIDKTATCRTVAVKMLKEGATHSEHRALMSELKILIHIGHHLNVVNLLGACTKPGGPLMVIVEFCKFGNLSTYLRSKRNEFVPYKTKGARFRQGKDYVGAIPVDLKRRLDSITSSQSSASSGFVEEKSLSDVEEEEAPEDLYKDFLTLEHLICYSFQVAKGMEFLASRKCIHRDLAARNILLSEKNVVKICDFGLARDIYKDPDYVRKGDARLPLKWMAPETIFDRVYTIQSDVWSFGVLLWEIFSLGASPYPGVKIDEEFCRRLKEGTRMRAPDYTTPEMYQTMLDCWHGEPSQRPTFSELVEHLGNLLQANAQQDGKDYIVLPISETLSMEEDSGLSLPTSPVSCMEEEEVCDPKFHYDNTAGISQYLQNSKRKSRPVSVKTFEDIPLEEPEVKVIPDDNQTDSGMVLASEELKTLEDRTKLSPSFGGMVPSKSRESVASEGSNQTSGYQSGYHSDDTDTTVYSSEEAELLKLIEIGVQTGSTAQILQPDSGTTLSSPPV
Structure (SMILES),TNF-α % inhibition PaCa2 (TNF-α [1]) [%],TNF-α pg/mL (± SEM) PaCa2 (TNF-α [1]) [pg/mL],TNF-α % inhibition HCT116 (TNF-α [2]) [%],TNF-α pg/mL (± SEM) HCT116 (TNF-α [2]) [pg/mL],TNF-α % inhibition MCF7 (TNF-α [3]) [%],TNF-α pg/mL (± SEM) MCF7 (TNF-α [3]) [pg/mL],IC50 [4] [µM],SI (selectivity index) PaCa2 [4],inhibition at 10 µM (COX-1) [%],IC50 [5] [µM],inhibition at 10 µM (VEGFR-2 [6]) [%],VEGFR-2 pg/mL ± SEM HCT116 (VEGFR-2 [6]) [pg/mL],IC50 [7] [µM],IC50 [8] [µM],SI (selectivity index) MCF7 [8],inhibition at 10 µM (COX-2) [%],"SI (selectivity index, COX-2/COX-1) (COX-2)",inhibition at 10 µM (VEGFR-2 [9]) [%],VEGFR-2 pg/mL ± SEM MCF7 (VEGFR-2 [9]) [pg/mL],"IC50 [10, 12] [µM]",also measured
"COc1ccc2c(c1)c(CC(=O)O)c(C)n2C(=O)c1ccc(Cl)cc1 [Indomethacin, reference compound]",32.6,75.3 ± 2.1,42.8,54.8 ± 0.7,22.9,64.2 ± 1.6,–,–,–,–,–,–,–,–,–,–,–,–,–,–,–
"CCOP(=O)(OCC)N1C/C(=C\c2ccccc2)C(=O)C2(C1)C(c1ccccc1)CN(C)C21C(=O)Nc2ccc(F)cc21 (centres unmarked) [Compound 17b, Diethyl (E)-(5′′-benzylidene-5-fluoro-1′-methyl-2,4′′-dioxo-4′-phenyldispiro[indoline-3,2′-pyrrolidine-3′,3′′-piperidin]-1′′-yl)phosphonate]",5.5,105.7 ± 3.9,1.1,94.64 ± 2.2,–,82.25 ± 2.6,12.2 ± 0.297,1.9,53.7 ± 3.7,23.1 ± 0.884,77,73.25 ± 2.0,11 ± 0.135,5.83 ± 0.213,4.0,61.3 ± 2.6,1.04,70.2,77.20 ± 0.6,7.41 ± 0.228,"SI (selectivity index) A549 [7]: 2.1; IC50 [10, 13]: 7.41 µM; SI (selectivity index) HCT116 [10]: 3.1; inhibition at 10 µM (VEGFR-2 [11]): 88.1%; VEGFR-2 pg/mL ± SEM PaCa2 (VEGFR-2 [11]): 38.75 ± 1.4 pg/mL"
"CCOP(=O)(OCC)N1C/C(=C\c2ccc(C)cc2)C(=O)C2(C1)C(c1ccc(C)cc1)CN(C)C21C(=O)Nc2ccc(F)cc21 (centres unmarked) [Compound 17n, Diethyl (E)-(5-fluoro-1′-methyl-5′′-(4-methylbenzylidene)-2,4′′-dioxo-4′-(p-tolyl)dispiro[indoline-3,2′-pyrrolidine-3′,3′′-piperidin]-1′′-yl)phosphonate]",13.9,96.3 ± 3.0,9.7,86.47 ± 2.4,0.1,83.17 ± 4.1,15.3 ± 0.911,> 3.3,50.6 ± 2.3,> 50,63.7,115.30 ± 2.2,> 50,4.37 ± 0.156,> 11.5,47.3 ± 1.4,1.08,66.9,85.60 ± 0.7,5.09 ± 0.191,"1/(observed property) [4]: 0.06519; selectivity index (SI) ([5]; IC50 against RPE1 compared to the tested cancer cell line(s), in words): high selectivity index; IC50 [10, 13]: 5.09 µM; SI (selectivity index) HCT116 [10]: > 9.8; inhibition at 10 µM (VEGFR-2 [11]): 87.5%; VEGFR-2 pg/mL ± SEM PaCa2 (VEGFR-2 [11]): 40.70 ± 1.6 pg/mL"
"CCOP(=O)(OCC)N1C/C(=C\c2cccs2)C(=O)C2(C1)C(c1cccs1)CN(C)C21C(=O)Nc2ccc(F)cc21 (centres unmarked) [Compound 17r, Diethyl (E)-(5-fluoro-1′-methyl-2,4′′-dioxo-4′-(thiophen-2-yl)-5′′-(thiophen-2-ylmethylene)dispiro[indoline-3,2′-pyrrolidine-3′,3′′-piperidin]-1′′-yl)phosphonate]",75.4,27.5 ± 0.5,–,27.45 ± 1.4,69.4,25.46 ± 0.9,8.29 ± 0.497,2.1,55.5 ± 2.6,17 ± 0.557,78.8,67.34 ± 0.4,14.18 ± 0.135,6.22 ± 0.082,2.7,51.8 ± 2,1.09,67.4,84.30 ± 1.0,7.67 ± 0.379,"1/(observed property) [4]: 0.1206; SI (selectivity index) A549 [7]: 1.2; IC50 [10, 13]: 7.67 µM; SI (selectivity index) HCT116 [10]: 2.2; inhibition at 10 µM (VEGFR-2 [11]): 79.6%; VEGFR-2 pg/mL ± SEM PaCa2 (VEGFR-2 [11]): 66.53 ± 0.8 pg/mL"
"CCOP(=O)(OCC)N1C/C(=C\c2ccc(F)cc2)C(=O)C2(C1)C(c1ccc(F)cc1)CN(C)C21C(=O)Nc2ccccc21 (centres unmarked) [Compound 17e, Diethyl (E)-[5′′-(4-fluorobenzylidene)-4′-(4-fluorophenyl)-1′-methyl-2,4′′-dioxodispiro[indoline-3,2′-pyrrolidine-3′,3′′-piperidin]-1′′-yl]phosphonate]",12.7,97.6 ± 1.6,1.5,94.27 ± 0.7,1.7,81.87 ± 3.0,9.48 ± 0.278,1.8,55 ± 3.6,16.6 ± 0.907,66.2,107.50 ± 2.0,7.73 ± 0.155,5.64 ± 0.273,2.9,59.6 ± 1.3,1.08,55,116.50 ± 1.0,6.99 ± 0.101,"1/(observed property) [4]: 0.1055; SI (selectivity index) A549 [7]: 2.1; IC50 [10, 13]: 6.99 µM; SI (selectivity index) HCT116 [10]: 2.4; inhibition at 10 µM (VEGFR-2 [11]): 61%; VEGFR-2 pg/mL ± SEM PaCa2 (VEGFR-2 [11]): 127.43 ± 1.3 pg/mL"
"CC(C)Cc1ccc(C(C)C(=O)O)cc1 (centres unmarked) [Ibuprofen, reference compound]",42.0,64.8 ± 0.6,22.2,74.5 ± 1.1,7.8,76.8 ± 2.0,–,–,–,–,–,–,–,–,–,–,–,–,–,–,–

# Source: article PMC12504763, “Antiproliferation, 3D-multicellular spheroid and VEGFR-2 inhibitory properties of spiroindolin-2-ones with phosphonate function” (Scientific Reports, 2025)
